Assays:
TNFα production = assay: Cytokine production suppressing activity using human whole blood (LPS stimulation); assay type: cell-based; details: LPS 200 ng/mL, 37° C., 5 hours
Procedure: Using human whole blood, the inhibitory action of Compound (I) on the TNFα production by LPS stimulation was studied by a method partially modified from the method described in Journal of Medicinal Chemistry (2003, Vol. 46, pp. 4676-4686).
A solution of each test compound in 100% DMSO and human blood were mixed in a 96-well flat-bottom plate. Thereafter, LPS (Final Concentration: 200 ng/mL) was added, and the resulting mixture was allowed to react at 37° C. for 5 hours (the final concentration of DMSO was 0.2%). After the reaction, the resultant was centrifuged for 20 minutes at room temperature, and the supernatant was collected. For the measurement of the TNFα amount in the supernatant, a human cytokine kit (CIS bio international) was used. As a comparative control compound, Comparative Compound 2 was used.

[1] = Pharmacokinetic evaluation in mouse (oral); assay type: in vivo; details: male; BALB/c mouse, oral 0.8 mg/kg, plasma
Procedure: Each test compound was dissolved in 10% HP-β-CD (Nihon Shokuhin Kako Co., Ltd.) to prepare a solution to be administered (0.08 mg/mL, as a solution to be administered for oral administration). To each BALB/c mouse (male, 7-week old, Charles River Laboratories Japan, Inc.), each compound was orally administered at a dose of 0.8 mg/kg. Blood was collected from the jugular vein or heart with time up to 24 hours after the administration. The obtained blood was centrifuged to collect blood plasma. The blood plasma was pretreated by methanol extraction method, and the concentration of the compound was analyzed by LC/MS/MS (ESI positive mode).
In this table, Cmax represents a maximum plasma concentration; and AUC0-∞ represents an area under the curve of the plasma concentration of the compound from after the compound administration to infinite time.

ICR mouse = assay: Evaluation of hepatotoxicity in mouse (plasma AST); assay type: in vivo; details: oral 500 mg/kg, plasma on the day after administration
Procedure: Compound (I) was suspended in 0.5% methylcellulose (Wako Pure Chemical Industries, Ltd.) to prepare a 50 mg/mL solution to be administered. To each ICR mouse (male, 7-week old, Charles River Laboratories Japan, Inc.), each compound was orally administered at a dose of 500 mg/kg. On the day after the administration, blood was collected from the posterior vena cava, and the obtained blood was centrifuged to collect blood plasma. AST (aspartate aminotransferase) value, which is a marker of hepatic disorders in blood plasma, was measured with a biochemistry automatic analyzer (Hitachi 7070, Hitachi, Ltd.). Comparative Compound 4 was suspended in 0.5% sodium carboxymethylcellulose (Wako Pure Chemical Industries, Ltd.) before use.

[2] = system: skin swelling response in type IV allergic dermatitis model; assay: Skin swelling response in type IV allergic dermatitis model; assay type: in vivo; details: BALB/c mouse, 24 hours after induction
Procedure: The action of Compound (I) on skin swelling response in mouse allergic dermatitis models was studied. As the allergic dermatitis models, models partially modified from a type I allergic dermatitis model and a type IV allergic dermatitis model described in documents (Inflamm. Res., 1998, Vol. 47, pp. 506-511 and Int. Arch. Allergy. Appl. Immunol., 1990, Vol. 92, pp. 356-360) were used.
To the back of each BALB/c mouse (female, 7-week old, Charles River Laboratories Japan, Inc.), 25 μL of 0.5% DNFB solution dissolved in acetone:olive oil (4:1) was applied. On the next day, the same operations were repeated to actively sensitize the mouse. Four days after the sensitization, 20 μL of 0.2% DNFB solution dissolved in acetone:olive oil (4:1) was applied to the auricle of the sensitized mouse to induce inflammation. Twenty four hours after the induction, the thickness of the auricle was measured using a Digimatic Indicator (Mitutoyo). Each test compound was dissolved in ethanol and 20 μL of 0.5 w/v % solution was applied to the auricle at 1 hour before the induction; or each test compound was suspended in 0.5% methylcellulose (Wako Pure Chemical Industries, Ltd.) and the resulting solution was orally administered at 30 mg/kg at 1 hour before the induction. The swelling ratio of the auricle was calculated according to the following equation: Auricular Swelling Ratio(%)=(A−B)/B×100

[3] = system: colonic disorders in DSS-induced chronic colitis model; assay: Colonic disorders in DSS-induced chronic colitis model; assay type: in vivo; details: BALB/c mouse, oral 10 mg/kg once Day 27, twice a day Day 28-31; scores Day 28-32
Excerpt: The action of Compound (I) on colonic disorders in inflammatory bowel disease models was studied. As the inflammatory bowel disease models, models partially modified from a TNBS-induced colitis model and a DSS-induced chronic colitis model described in documents (Gastroenterology, 1989, Vol. 96, pp. 29-36 and Am. J. Physiol. Gastrointest. Liver Physiol., 2004, Vol. 287, pp. G115-124) were used.
To each BALB/cCrSlc mouse (female, 9-week old, Japan SLC, Inc.), DSS (Molecular Weight: 36-50 kDa; MP Biomedicals) dissolved in sterile ultrapure water was administered via free drinking for 5 days from the day of the start of the administration via drinking water (this day was considered as Day 0 after the start of the administration via drinking water), and then switched to administration of sterile ultrapure water via free drinking for 5 days. This cycle was repeated again, and DSS was further administered via free drinking for another 7 days to produce the colitis model. As an index of colitis symptoms, stool consistency scores were used. The stool consistency scores were based on the following criteria: normal stool was defined as score 0; loose stool was defined as score 2; and diarrhea was defined as score 4. […]

Work on COc1c(NC(=O)N[C@@H]2Cc3ccccc3[C@@H]2O)cc(C(C)(C)C)cc1[C@@H](O)C(F)(F)F [Compound 46b, 1-(5-tert-butyl-2-methoxy-3-((R)-2,2,2-trifluoro-1-hydroxyethyl)phenyl)-3-((1S,2R)-1-hydroxy-2,3-dihydro-1H-indene-2-yl)urea] yielded an IC50 (TNFα production) of 508 nM, an AUC(0-inf) [1] of 588 ng·h/mL and a Cmax [1] of 561 ng/mL. The AST value (ICR mouse) was 47 U/L, the “suppression ratio of auricular swelling, oral administration” value ([2]; 30 mg/kg oral 1 hour before induction) was 37.7% and the “suppression ratio of auricular swelling, auricular application” value ([2]; 20 μL of 0.5 w/v % solution on auricle 1 hour before induction) was 49.2%. For the same compound, the “stool consistency score (total)” value [3] was 5.7±0.8.
